The target of series [1] is T1, IDO1 (Mus musculus, UniProt P28776).
T1 construct: The M109 tumor model is generated from a murine lung carcinoma cell line and expresses high levels of IDO1; from tissue; host or cells: subcutaneous M109 (murine lung carcinoma) tumours in BALB/c mice, imaged in vivo
In words: In-vivo PET imaging in M109 xenograft mice after treatment with the unlabeled IDO1 inhibitor (Example 6). The note with it: 6, 60, 150 mg/kg PO once daily for 4 or 5 days.
Experimental: Dosing and treatment was established based on known pharmacological effect and treatment was administered PO, once daily, for 4 or 5 days. All animals were received a PET scan post-treatment with the last dose of (R)—N-(4-chlorophenyl)-2-((1S,4)-4-(6-fluoroquinolin-4-yl)cyclohexyl)propanamide or vehicle administered 2 hours before PET imaging. […] The exact injected dose was calculated by subtracting the decay corrected activity of the residual in the syringe after injection from the total measured dose in the syringe prior to injection. For PET imaging, the mice were anesthetized with isoflurane and placed into a custom animal holder with capacity for 4 animals. Body temperature was maintained with a heating pad and anesthesia was maintained with 1.5% isoflurane for the duration of the imaging PET imaging was performed on a dedicated microPET® F120™ scanner and a F220™ scanner (Siemens Preclinical Solutions, Knoxville, Tenn.). A 10 minute transmission scan was performed using a ^57Co source for attenuation correction of the final PET images and followed by a 10 min static emission scan. Either before or after PET imaging a CT scan (X-SPECT, Gamma Medica) or MRI scan (Bruker) was performed for anatomical orientation during image analysis. PET images were reconstructed using a maximum a posteriori (MAP) algorithm with attenuation correction using the collected transmission images. Image analysis was performed using the image analysis software AMIDE PET images were co-registered with their corresponding CT or MRI images and regions of interest (ROIs) were manually drawn around tumor boundaries and muscle using the CT or MRI images as the anatomical guidelines. The outcome measure percentage injected dose/g tissue (% ID/g) was obtained from the ROIs volume and the calculated injected activity decay corrected to the beginning of the emission scan.

Series [2] has as its target T1, IDO1. In words: In-vivo PET imaging in M109 xenograft mice at baseline and after treatment with an IDO1 inhibitor (Example 7). The note with it: 6, 60, 150 mg/kg PO once daily for 5 days. On the procedure: All mice underwent 2 separate PET scans. The first was a baseline PET scan before treatment began and the second was a post treatment scan with either the IDO1 inhibitor or vehicle. Treatment was administered PO once daily for 5 days with the last dose administered 2 hours prior to the post-treatment PET scan. […] There were no difference in tracer uptake at baseline in the M109 tumors between any of the groups.

Series [3] can be described thus: PET biodistribution in non-human primate (Example 9). It is filed as in vivo. As to conditions: male cynomolgus monkey, 1.2 mCi i.v., 5 full body PET scans. On the procedure:
A male cynomolgus monkey (3.5 kg) was anesthetized via a cocktail of 0.02 mg/kg Atropine, and 5 mg/kg Telazol, 0.01 mg/kg Buprenorphine and maintained with 1-2% isoflurane for the duration of the study. Body temperature was maintained at ˜37° C. using an external circulating water bed to prevent hypothermia during imaging. The monkey was intubated and a saphenous vein catheter was inserted to allow for radiotracer injection. […] The axial field of view in the PET system is 7.6 cm. With this limitation, images were acquired over 7 distinct bed positions to cover the full body with an overlap of 1.5 cm between beds. Prior to emission imaging a 10 minute transmission image was acquired for each bed position for attenuation correction of the final PET images, immediately following collection of the final transmission image, the bed was returned to position 1 and the radiotracer was injected via the saphenous vein catheter concurrently with the start of the first emission scan. For emission, a total of 5 full body scans were acquired, using 5 min emission acquisitions for each bed position. Images were reconstructed using a MAP algorithm with attenuation correction. Bed positions were stitched together for a full body image using a stitching software tool developed in house and PET and MRI images were co-registered using AMIDE software. The final images were visually inspected to note areas of high tracer accumulation and evaluate biodistribution and background signal.

For series [4], the target named is T1, IDO1. In words: Comparison of tracer uptake in high (M109) and low (CT26) IDO1 expressing tumor models (Example 8). The class given is in vivo. As to conditions: BALB/c mice given vehicle for 5 days, tracer i.v. 1 hour before PET, CT26 low IDO1 expression. The source says: In order to compare the ability to differentiate between differences in expression levels of IDO1 we imaged an additional mouse model carrying CT26 tumors. The CT26 tumor model is generated from a murine colorectal carcinoma cell line and expresses lower levels of IDO1 than the M109 model.

Where [5] appears, read: listed as 18F—(R)—N-(4-chlorophenyl)-2-((1S,4S)-4-(6-fluoroquinolin-4-yl)cyclohexyl)propan.
[6] abbreviates: listed as [^18F](R)—N-(4-chlorophenyl)-2-((1S,4S)-4-(6-fluoroquinolin-4-yl)cyclohexyl)prop.

Structures are written as SMILES. Entries after “also recorded” stand apart in the source; their conditions may differ.

T1 sequence (P28776 whole entry): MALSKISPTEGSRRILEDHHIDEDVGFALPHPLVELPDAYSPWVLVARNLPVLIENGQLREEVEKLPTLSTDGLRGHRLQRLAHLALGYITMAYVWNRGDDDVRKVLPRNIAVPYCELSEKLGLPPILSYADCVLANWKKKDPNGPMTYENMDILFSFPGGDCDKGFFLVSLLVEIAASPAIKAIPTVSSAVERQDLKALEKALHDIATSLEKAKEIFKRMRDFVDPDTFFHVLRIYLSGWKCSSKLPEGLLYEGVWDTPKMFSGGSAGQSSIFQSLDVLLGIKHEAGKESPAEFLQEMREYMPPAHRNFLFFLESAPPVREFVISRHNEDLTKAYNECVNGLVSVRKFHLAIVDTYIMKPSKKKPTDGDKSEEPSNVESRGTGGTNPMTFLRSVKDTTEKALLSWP

For `C[C@@H](C(=O)Nc1ccc(Cl)cc1)C1CCC(c2ccnc3ccc(F)cc23)CC1` (stereo partly drawn) [(R)—N-(4-chlorophenyl)-2-((1S,4S)-4-(6-fluoroquinolin-4-yl)cyclohexyl)propanamide], the “Tracer uptake (% ID/g) in M109 tumors compared to vehicle” value in series [1] (last dose 2 hours before PET, [18F] tracer i.v. 1 hour before imaging) is “dose-dependent decrease in tracer uptake; also recorded: dose-dependent displacement of the tracer”. Besides, in series [1] (muscle used as reference region for non-specific binding), the “Tracer uptake in muscle reference tissue” value is given as “no effect on the tracer; also recorded: no effect on the uptake in muscle tissue”. In addition, the “Tracer uptake in muscle reference tissue, baseline vs post-treatment” value in series [2] was “unaffected by treatment”. Also, the “Tracer uptake in M109 tumors after treatment, compared to vehicle group and baseline” value in series [2] (last dose 2 hours before post-treatment PET scan) was “dose-dependent decrease in tracer uptake; also recorded: dose-dependent displacement of the tracer”.

With `C[C@@H](C(=O)Nc1ccc(Cl)cc1)[C@H]1CC[C@@H](c2ccnc3ccc([18F])cc32)CC1` [Example 5, [^18F](R)—N-(4-chlorophenyl)-2-((1S, 4S)-4-(6-fluoroquinolin-4-yl)cyclohexyl)propanamide], in series [3] (setting [5]), the “Areas of tracer accumulation (biodistribution)” value is “accumulated in expected clearance organs such as liver and gallbladder”; the “Background signal in the rest of the body” value is given as “little to no background”. For the same molecule, in series [3] (setting [6]), the “Areas of tracer accumulation (biodistribution)” value was “accumulated in the liver and gallbladder”; the “Background signal in the rest of the body” value was “minimal”. For the same molecule, in series [4], the “Tracer uptake (% ID/g) in M109 tumors compared to CT26 tumors” value is on record as “higher % ID/g was observed in M109 mouse xenograft tumors compared to % ID/g in CT26 mouse xenograft tumors; also recorded: increased in M109 tumors”.

The values above are taken from patent US20220305144A1, “RADIOLIGANDS FOR IMAGING THE ID01 ENZYME” (Bristol-Myers Squibb Company, priority 2016, published 2022).
